One experiment has as its system A2.1/K^b-Tg mice. In words: Peptide priming of A2.1/K^b-Tg mice, lytic activity of peptide-specific CTL. The format is in vivo. Further details: Lytic Activity by Peptide-Specific CTL After Priming of A2.1/K^b-Tg Mice [Specific ^51Cr release (%)]: concentration or dose not given beside the values. As to conditions: for Lytic Activity by Peptide-Specific CTL After Priming of A2.1/K^b-Tg Mice [Specific ^51Cr release (%)]: E:T ratio of 60:1, peptide-pulsed T2A2/K^b targets, highest of at least three individual mice; for A2.1/K^b-restricted peptide-specific CTL response of A2.1/K^b-Tg mice (in words): mouse, in vivo.

The next experiment has as its target HLA-A2.1 (Homo sapiens, UniProt P04439, D140Y/D185E/D98H/E176V/E277Q/G131W/G231S/I119V/I121R/I166T/I218V/L300P/L318F/N151K/N90K/P208A/P217A/Q86G/Q94H/R138H/R169H/T345S). Kind of experiment: Competition assay of peptide binding to HLA-A2.1 (inhibition of M1 58-66 binding, clone 12 lysis of EA2 targets).

The results in this text go back to patent US7402314B2, “In vivo activation of tumor-specific cytotoxic T cells” (The Scripps Research Institute, priority 1995, dated 2008).

Turning to AAPPVAPAPA [hu-wt-p53 69-78], the “Lytic Activity by Peptide-Specific CTL After Priming of A2.1/K^b-Tg Mice [Specific ^51Cr release (%)]” value (“Lytic Activity … [Specific ^51Cr release (%)]” for short) with A2.1/K^b-Tg mice is given as 0%. As for NLLGRNSFEV [hu-wt-p53 263-272], the “Lytic Activity … [Specific ^51Cr release (%)]” value in the experiment with A2.1/K^b-Tg mice was 3%. On the same count and under the same terms, then AAPPVAPA [hu-wt-p53 69-76], with 0%; and VLSPLPSQA [hu-wt-p53 31-39], with 3%. With SVTCTYSPA [hu-wt-p53 121-129], the “A2.1-binding: inhibition of A2.1-binding of M1 (58-66) (%)” value in the experiment with HLA-A2.1 amounted to 8%. DLMLSPDDI [hu-wt-p53 42-50]: the “Lytic Activity … [Specific ^51Cr release (%)]” value with A2.1/K^b-Tg mice is recorded as 0%. On the same count and under the same terms, the result for NTFRHSVVV [hu-wt-p53 210-218] reads 6%. Consider ITLEDSSGNL [hu-wt-p53 255-264], for which, in the experiment on A2.1/K^b-Tg mice, the “Lytic Activity … [Specific ^51Cr release (%)]” value stood at 3% and the “A2.1/K^b-restricted peptide-specific CTL response of A2.1/K^b-Tg mice (in words)” value is “lack of CTL responsiveness”. Also, the “A2.1-binding activity / affinity for the presenting MHC class I molecule (in words)” value (“A2.1-binding activity / affinity” below) with HLA-A2.1 is “intermediate”. As for LMLSPDDIEQ [hu-wt-p53 43-52], the “Lytic Activity … [Specific ^51Cr release (%)]” value in the experiment with A2.1/K^b-Tg mice was 3%. As for PLDGEYFTL [hu-wt-p53 322-330], in the experiment on A2.1/K^b-Tg mice, the “Lytic Activity … [Specific ^51Cr release (%)]” value worked out at 0% and the “A2.1/K^b-restricted peptide-specific CTL response of A2.1/K^b-Tg mice (in words)” value was “lack of CTL responsiveness”. In the experiment with HLA-A2.1, the “A2.1-binding activity / affinity” value is “intermediate”. As for VLSPLPSQAM [hu-wt-p53 31-40], the “Lytic Activity … [Specific ^51Cr release (%)]” value in the experiment on A2.1/K^b-Tg mice amounted to 0%. Still for that read-out and setting: then LLPENNVLS [hu-wt-p53 25-33], with 3%.

On to LLGRNSFEV, for which, in the experiment with A2.1/K^b-Tg mice, the “Lytic Activity … [Specific ^51Cr release (%)]” value turned out to be 94% and the “A2.1/K^b-restricted peptide-specific CTL response of A2.1/K^b-Tg mice (in words)” value is recorded as “detectable”. In the case of AAPPVAPAPAA [hu-wt-p53 69-79], the “Lytic Activity … [Specific ^51Cr release (%)]” value with A2.1/K^b-Tg mice came to 0%. On to “LLGRDSFEV [mur-wt-p53 261-269, reference compound]”, for which, in the experiment on A2.1/K^b-Tg mice, the “Lytic Activity … [Specific ^51Cr release (%)]” value was determined as 10% and the “A2.1/K^b-restricted peptide-specific CTL response of A2.1/K^b-Tg mice (in words)” value is “No significant response”. Moreover, in the experiment with HLA-A2.1, the “A2.1-binding activity / affinity” value is “highest A2.1-binding activity of all p53 peptides tested”. For the sequence VAPAPAAPT [hu-wt-p53 73-81], the “Lytic Activity … [Specific ^51Cr release (%)]” value in the experiment on A2.1/K^b-Tg mice is recorded as 0%. The same measure, in the same setting: the result for ALNKMFCQL reads 0%. Turning to GLAPPQHLI [hu-wt-p53 187-195], in the experiment with A2.1/K^b-Tg mice, the “Lytic Activity … [Specific ^51Cr release (%)]” value is recorded as 1% and the “A2.1/K^b-restricted peptide-specific CTL response of A2.1/K^b-Tg mice (in words)” value is “lack of CTL responsiveness”. Also, the “A2.1-binding activity / affinity” value with HLA-A2.1 is recorded as “high”. As to “ILKEPVHGV [HIV-1 RT 476-484, reference compound]”, the “A2.1/K^b-restricted peptide-specific CTL response of A2.1/K^b-Tg mice (in words)” value in the experiment with A2.1/K^b-Tg mice is reported as “could mount an A2.1/K^b-restricted CTL response”. Turning to AAPTPAAPA [hu-wt-p53 78-86], in the experiment on A2.1/K^b-Tg mice, the “Lytic Activity … [Specific ^51Cr release (%)]” value is given as 0%.
